Patent US20260274892A1, “MACROCYCLIC BROAD SPECTRUM ANTIBIOTICS” (RQx Pharmaceuticals, Inc., priority 2017, published 2026)
Read-outs that look alike come from different tables or passages of the source.

What was measured:
[1] = cc_pd bond, Pd(dppf)Cl2·CH2Cl2, acetonitrile
[2] = tested on: Methicillin Resistant Staphylococcus aureus strain USA 200; assay: Minimum inhibitory concentration (MIC), CLSI broth micro-dilution, S. aureus; assay type: cell-based; details: Staphylococcus aureus, MRSA / USA200, MRSA USA 200, cation adjusted Mueller Hinton Broth + 0.002% Tween-80, 35° C., 22 hours
How it was run: (§1)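 Colonies grown 20 h at 35° C on Trypticase Soy agar (MRSA) or Luria agar (E. coli) were suspended in cation-adjusted Mueller Hinton broth with 0.002% Tween-80. Suspensions were added at OD600 0.0005 to 10-point twofold compound dilutions, then incubated 22 h at 35° C.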

[3] = tested on: Escherichia coli ATCC 25922; assay: Minimum inhibitory concentration (MIC), CLSI broth micro-dilution, E. coli; assay type: cell-based; details: Escherichia coli, ATCC25922, 22 h
How it was run: as §1

[4] = Table 6, cation adjusted Mueller Hinton Broth + 0.002% Tween-80, 35° C.

| Structure (SMILES) | MIC ([2]; Table 6) [µM] | MIC [3, 4] [µM] | other results |
| --- | --- | --- | --- |
| COC(=O)[C@@H]1Cc2cc(F)c(OCc3ccccc3)c(c2)-c2cc(ccc2OCCNC(=O)OC(C)(C)C)[C@H](N(C)C(=O)OCc2ccccc2)C(=O)N[C@@H](C)C(=O)N1 | – | – | ring closure, yield of all isomers ([1]; from COC(=O)[C@H](Cc1cc(F)c(OCc2ccccc2)c(B2OC(C)(C)C(C)(C)O2)c1)NC(=O)[C@H](C)NC(=O)[C@H](c1ccc(OCCNC(=O)OC(C)(C)C)c(I)c1)N(C)C(=O)OCc1ccccc1, 20.06 mM, 70.0 °C, 1.5 h): 31% |
| Cc1nc([C@H]2CC[C@@H](C(C)(C)C)CC2)nc(C)c1C(=O)N[C@@H](CCN)C(=O)N(C)[C@@H]1C(=O)N[C@@H](C)C(=O)N[C@H](C(=O)NCC#N)Cc2ccc(OCCN)c(c2)-c2cc1ccc2OCCN [Compound 297, rac-(8S,11S,14S)-3,18-bis(2-aminoethoxy)-N-(cyanomethyl)-11-methyl-14-[methyl-[rac-(2S)-4-amino-2-[[2-(4-tert-butylcyclohexyl)-4,6-dimethyl-pyrimidine-5-carbonyl]amino]butanoyl]amino]-10,13-dioxo-9,12-diazatricyclo[13.3.1.12,6]icosa-1(18),2(20),3,5,15(19),16-hexaene-8-carboxamide] | 0.016 | 0.75 | – |
| COC(=O)[C@@H]1Cc2cc(O)c(OC)c(c2)-c2cc(ccc2OC)[C@H](N(C)C(=O)OC(C)(C)C)C(=O)N[C@@H](C)C(=O)N1 | – | – | ring closure, yield of all isomers ([1]; from COC(=O)[C@H](Cc1cc(O)c(OC)c(B2OC(C)(C)C(C)(C)O2)c1)NC(=O)[C@H](C)NC(=O)[C@H](c1ccc(OC)c(I)c1)N(C)C(=O)OC(C)(C)C, 65.0 °C, 2.0 h): 17.1% |
| C[C@@H]1NC(=O)[C@@H](N(C)C(=O)[C@H](CCN)NC(=O)c2ccc(-c3ccc(C(C)(C)C)cc3)cc2Cl)c2ccc(OCCN)c(c2)-c2cc(ccc2OCCN)C[C@@H](C(=O)NCC#N)NC1=O (racemic) [Compound 371, rac-(8S,11S,14S)-3,18-bis(2-aminoethoxy)-N-(cyanomethyl)-11-methyl-14-[methyl-[rac-(2S)-4-amino-2-[[4-(4-tert-butylphenyl)-2-chloro-benzoyl]amino]butanoyl]amino]-10,13-dioxo-9,12-diazatricyclo[13.3.1.12,6]icosa-1(18),2(20),3,5,15(19),16-hexaene-8-carboxamide] | 0.031 | 0.19 | – |
| CCCCCc1ncc(-c2ccc(C(=O)N[C@@H](CCN)C(=O)N(C)[C@@H]3C(=O)N[C@@H](C)C(=O)N[C@H](C(=O)NCC#N)Cc4ccc(OCCN)c(c4)-c4cc3ccc4OCCN)c(C)n2)cn1 (racemic) [Compound 209, rac-(8S,11S,14S)-3,18-bis(2-aminoethoxy)-N-(cyanomethyl)-11-methyl-14-[methyl-[rac-(2S)-4-amino-2-[[2-methyl-6-(2-pentylpyrimidin-5-yl)pyridine-3-carbonyl]amino]butanoyl]amino]-10,13-dioxo-9,12-diazatricyclo[13.3.1.12,6]icosa-1(18),2(20),3,5,15(19),16-hexaene-8-carboxamide] | 0.26 | 2.1 | – |
| CNc1nc(-c2ccc(C(C)(C)C)cc2)ncc1C(=O)N[C@@H](CCN)C(=O)N(C)[C@@H]1C(=O)N[C@@H](C)C(=O)N[C@H](C(=O)NCC#N)Cc2ccc(OCCN)c(c2)-c2cc1ccc2OCCN [Compound 489] | 0.016 | 0.38 | – |
| Cc1nc(-c2ccc(C(C)(C)C)cc2)nc(C)c1C(=O)N[C@@H](CCN)C(=O)N(C)[C@@H]1C(=O)N[C@@H](C)C(=O)N[C@H](C(=O)O)Cc2ccc(OCCN)c(c2)-c2cc1ccc2OCCN (racemic) [Compound 645, rac-(8S,11S,14S)-3,18-bis(2-aminoethoxy)-11-methyl-14-[methyl-[rac-(2S)-4-amino-2-[[2-(4-tert-butylphenyl)-4,6-dimethyl-pyrimidine-5-carbonyl]amino]butanoyl]amino]-10,13-dioxo-9,12-diazatricyclo [13.3.1.12,6]icosa-1(18),2(20),3,5,15(19), 16-hexaene-8-carboxylic acid] | – | – | MIC ([2]; Table 8): 0.52 µM; MIC ([3]; Table 8, cation adjusted Mueller Hinton Broth + 0.002% Tween-80, 35° C.): 0.4 µM |
| Cc1nc(-c2ccc(C3CCOCC3)cc2)ncc1C(=O)N[C@@H](CCN)C(=O)N(C)[C@@H]1C(=O)N[C@@H](C)C(=O)N[C@H](C(=O)NCC#N)Cc2ccc(OCCN)c(c2)-c2cc1ccc2OCCN (racemic) [Compound 231, rac-(8S,11S,14S)-3,18-bis(2-aminoethoxy)-N-(cyanomethyl)-11-methyl-14-[methyl-[rac-(2S)-4-amino-2-[[4-methyl-2-(4-tetrahydropyran-4-ylphenyl)pyrimidine-5-carbonyl]amino]butanoyl]amino]-10,13-dioxo-9,12-diazatricyclo[13.3.1.12,6]icosa-1(18),2(20),3,5,15(19),16-hexaene-8-carboxamide] | 0.35 | 1.4 | – |
| Cc1cc(Oc2ccc(C(C)(C)C)cc2)cc(C)c1C(=O)N[C@@H](CCN)C(=O)N(C)[C@@H]1C(=O)N[C@@H](C)C(=O)N[C@H](C(=O)NCC#N)Cc2ccc(OCCN)c(c2)-c2cc1ccc2OCCN (racemic) [Compound 375, rac-(8S,11S,14S)-3,18-bis(2-aminoethoxy)-N-(cyanomethyl)-11-methyl-14-[methyl-[rac-(2S)-4-amino-2-[[4-(4-tert-butylphenoxy)-2,6-dimethyl-benzoyl]amino]butanoyl]amino]-10,13-dioxo-9,12-diazatricyclo[13.3.1.12,6]icosa-1(18),2(20),3,5,15(19),16-hexaene-8-carboxamide] | 0.031 | 0.5 | – |
| CCCCc1ccc(Oc2ccc(C(=O)N[C@@H](CCN)C(=O)N(C)[C@@H]3C(=O)N[C@@H](C)C(=O)N[C@H](C(=O)NCC#N)Cc4ccc(OCCN)c(c4)-c4cc3ccc4OCCN)c(Cl)c2)cc1CCCC (racemic) [Compound 378, rac-(8S,11S,14S)-3,18-bis(2-aminoethoxy)-N-(cyanomethyl)-11-methyl-14-[methyl-[rac-(2S)-4-amino-2-[[2-chloro-4-(3,4-dibutylphenoxy)benzoyl]amino]butanoyl]amino]-10,13-dioxo-9,12-diazatricyclo[13.3.1.12,6]icosa-1(18),2(20),3,5,15(19),16-hexaene-8-carboxamide] | 0.031 | 0.38 | – |

Second part, led by results:

| MIC ([2]; Table 6) [µM] | MIC [3, 4] [µM] | Structure (SMILES) | other results |
| --- | --- | --- | --- |
| 0.016 | 0.094 | Cc1nc(-c2ccc(C3CCC3)cc2)nc(C)c1C(=O)N[C@@H](CCN)C(=O)N(C)[C@@H]1C(=O)N[C@@H](C)C(=O)N[C@H](C(=O)NCC#N)Cc2ccc(OCCN)c(c2)-c2cc1ccc2OCCN (racemic) [Compound 301, rac-(8S,11S,14S)-3,18-bis(2-aminoethoxy)-N-(cyanomethyl)-11-methyl-14-[methyl-[rac-(2S)-4-amino-2-[[2-(4-cyclobutylphenyl)-4,6-dimethyl-pyrimidine-5-carbonyl]amino]butanoyl]amino]-10,13-dioxo-9,12-diazatricyclo[13.3.1.12,6]icosa-1(18),2(20),3,5,15(19),16-hexaene-8-carboxamide] | – |
| 0.063 | 0.38 | Cc1nc(-c2ccc(OC3CCCCC3)cc2)nc(C)c1C(=O)N[C@@H](CO)C(=O)N(C)[C@@H]1C(=O)N[C@@H](C)C(=O)N[C@H](C(=O)NCC#N)Cc2ccc(OCCN)c(c2)-c2cc1ccc2OCCN [Compound 507, (8S,11S,14S)-3,18-bis(2-aminoethoxy)-N-(cyanomethyl)-14-[[(2S)-2-[[2-[4-(cyclohexoxy)phenyl]-4,6-dimethyl-pyrimidine-5-carbonyl]amino]-3-hydroxy-propanoyl]-methyl-amino]-11-methyl-10,13-dioxo-9,12-diazatricyclo[13.3.1.12,6]icosa-1(18),2(20),3,5,15(19),16-hexaene-8-carboxamide] | – |
| 0.016 | 0.13 | CCC(CC)Cc1ccc(-c2nc(C)c(C(=O)N[C@@H](CCN)C(=O)N(C)[C@@H]3C(=O)N[C@@H](C)C(=O)N[C@H](C(=O)NCC#N)Cc4ccc(OCCN)c(c4)-c4cc3ccc4OCCN)c(C)n2)cc1 (racemic) [Compound 277, rac-(8S,11S,14S)-3,18-bis(2-aminoethoxy)-N-(cyanomethyl)-11-methyl-14-[methyl-[rac-(2S)-4-amino-2-[[2-[4-(2-ethylbutyl)phenyl]-4,6-dimethyl-pyrimidine-5-carbonyl]amino]butanoyl]amino]-10,13-dioxo-9,12-diazatricyclo[13.3.1.12,6]icosa-1(18),2(20),3,5,15(19),16-hexaene-8-carboxamide] | – |
| 0.39 | 1 | COC(C)(C)c1ccc(-c2nc(C)c(C(=O)N[C@@H](CCN)C(=O)N(C)[C@@H]3C(=O)N[C@@H](C)C(=O)N[C@H](C(=O)NCC#N)Cc4ccc(OCCN)c(c4)-c4cc3ccc4OCCN)c(C)n2)cc1 (racemic) [Compound 267, rac-(8S,11S,14S)-3,18-bis(2-aminoethoxy)-N-(cyanomethyl)-11-methyl-14-[methyl-[rac-(2S)-4-amino-2-[[2-[4-(1-methoxy-1-methyl-ethyl)phenyl]-4,6-dimethyl-pyrimidine-5-carbonyl]amino]butanoyl]amino]-10,13-dioxo-9,12-diazatricyclo[13.3.1.12,6]icosa-1(18),2(20),3,5,15(19),16-hexaene-8-carboxamide] | – |
